Laboratory results published in ChEMBL document CHEMBL5346873, “Strategic modification of low-activity natural antimicrobial peptides confers antibacterial potential in vitro and in vivo” (Eur J Med Chem, 2023).
Activity calls are given as the source filed them. The calls are words filed in the database; no cut-off is given here.

Key:
Vibrio vulnificus [1] = test: Antibacterial activity against Vibrio vulnificus infected in BALB/c mouse wound infection model assessed as reduction in wound infection rate at 12.5 ug per animal administered 12 hrs post infection and measured for 14 days; type: functional, organism-based; details: dose 12.5 µg, time 14.0 day
Klebsiella aerogenes [2] = test: Antibacterial activity against Enterobacter aerogenes assessed as fractional inhibitory concentration; type: functional
Pseudomonas aeruginosa [3] = test: Antibacterial activity against Pseudomonas aeruginosa in presence of doxycycline; type: functional
Klebsiella pneumoniae [4] = test: Additive antibacterial activity against Klebsiella pneumoniae expressing NDM1 assessed as fractional inhibitory concentration in presence of meropenem; type: functional
Klebsiella pneumoniae [5] = test: Additive antibacterial activity against Klebsiella pneumoniae expressing NDM1 in presence of meropenem; type: functional
Escherichia coli [6] = test: Synergistic antibacterial activity against Escherichia coli in presence of doxycycline; type: functional
Vibrio vulnificus [7] = test: Bactericidal activity against Vibrio vulnificus 204 at MIC after 30 mins; type: functional; details: 0.5 h
Klebsiella pneumoniae [8] = test: Bactericidal activity against NDM Klebsiella pneumoniae incubated overnight; type: functional
Escherichia coli [9] = test: Synergistic antibacterial activity against Escherichia coli assessed as doxycycline MIC; type: functional
Klebsiella pneumoniae [10] = test: Synergistic antibacterial activity against Klebsiella pneumoniae expressing NDM1 in presence of doxycycline by checkerboard microtiter plate assay; type: functional
Vibrio vulnificus [11] = test: Antibacterial activity against Vibrio vulnificus infected in BALB/c mouse wound infection model assessed as reduction in bacterial infection at 12.5 ug per animal administered 12 hrs post infection and measured for 14 days; type: functional, organism-based; details: dose 12.5 µg, time 14.0 day
Klebsiella aerogenes [12] = test: Antibacterial activity against Enterobacter aerogenes assessed as doxycycline MIC; type: functional
Klebsiella pneumoniae [13] = test: Additive antibacterial activity against Klebsiella pneumoniae expressing NDM1 assessed as meropenem MIC; type: functional
Klebsiella aerogenes [14] = test: Antibacterial activity against Enterobacter aerogenes in presence of doxycycline; type: functional
Nakaseomyces glabratus = test: Fungicidal activity against Candida glabrata incubated overnight; type: functional
Pseudomonas aeruginosa [15] = test: Antibacterial activity against Pseudomonas aeruginosa assessed as doxycycline MIC; type: functional
Pseudomonas aeruginosa [16] = test: Antibacterial activity against Pseudomonas aeruginosa assessed as fractional inhibitory concentration in presence of doxycycline; type: functional
Vibrio vulnificus [17] = test: Antibacterial activity against Vibrio vulnificus infected in BALB/c mouse wound infection model assessed as survival at 12.5 ug per animal administered 12 hrs post infection and measured for 14 days; type: functional; details: dose 12.5 µg; time 14 day
Escherichia coli [18] = test: Synergistic antibacterial activity against Escherichia coli assessed as fractional inhibitory concentration in presence of doxycycline; type: functional
Escherichia coli [19] = test: Additive antibacterial activity against Escherichia coli assessed as doxycycline MIC by checkerboard microtiter plate assay; type: functional
Klebsiella aerogenes [20] = test: Additive antibacterial activity against Enterobacter aerogenes assessed as fractional inhibitory concentration in presence of doxycycline by checkerboard microtiter plate assay; type: functional
Klebsiella pneumoniae [21] = test: Synergistic antibacterial activity against Klebsiella pneumoniae expressing NDM1 assessed as meropenem MIC by checkerboard microtiter plate assay; type: functional
Escherichia coli [22] = test: Additive antibacterial activity against Escherichia coli in presence of doxycycline by checkerboard microtiter plate assay; type: functional
Streptococcus iniae = test: Antibacterial activity against Streptococcus iniae in presence of human serum; type: functional, organism-based
Pseudomonas aeruginosa [23] = test: Additive antibacterial activity against Pseudomonas aeruginosa assessed as fractional inhibitory concentration in presence of doxycycline by checkerboard microtiter plate assay; type: functional
Klebsiella pneumoniae [24] = test: Synergistic antibacterial activity against Klebsiella pneumoniae expressing NDM1 in presence of meropenem by checkerboard microtiter plate assay; type: functional
Pseudomonas aeruginosa [25] = test: Additive antibacterial activity against Pseudomonas aeruginosa in presence of doxycycline by checkerboard microtiter plate assay; type: functional
Escherichia coli [26] = test: Additive antibacterial activity against Escherichia coli assessed as fractional inhibitory concentration in presence of doxycycline by checkerboard microtiter plate assay; type: functional
Pseudomonas aeruginosa [27] = test: Additive antibacterial activity against Pseudomonas aeruginosa assessed as doxycycline MIC by checkerboard microtiter plate assay; type: functional
Klebsiella aerogenes [28] = test: Additive antibacterial activity against Enterobacter aerogenes assessed as doxycycline MIC by checkerboard microtiter plate assay; type: functional
Vibrio vulnificus [29] = test: Antibacterial activity against Vibrio vulnificus infected in BALB/c mouse wound infection model assessed as survival at 6.25 ug per animal administered 12 hrs post infection and measured for 14 days; type: functional; details: dose 6.25 µg; time 14 day
Klebsiella pneumoniae [30] = test: Synergistic antibacterial activity against Klebsiella pneumoniae expressing NDM1 assessed as fractional inhibitory concentration in presence of meropenem by checkerboard microtiter plate assay; type: functional
Vibrio vulnificus [31] = test: Antibacterial activity against Vibrio vulnificus infected in BALB/c mouse wound infection model assessed as reduction in wound infection rate at 6.25 ug per animal administered 12 hrs post infection and measured for 14 days; type: functional, organism-based; details: dose 6.25 µg, time 14.0 day
Klebsiella aerogenes [32] = test: Additive antibacterial activity against Enterobacter aerogenes in presence of doxycycline by checkerboard microtiter plate assay; type: functional
Vibrio vulnificus [33] = test: Antibacterial activity against Vibrio vulnificus infected in BALB/c mouse wound infection model assessed as reduction in bacterial infection at 6.25 ug per animal administered 12 hrs post infection and measured for 14 days; type: functional, organism-based; details: dose 6.25 µg, time 14.0 day
Vibrio vulnificus [34] = test: Bactericidal activity against Vibrio vulnificus 204 at MIC after 5 mins; type: functional, organism-based

H-KKCIAKAILKKAKKLLKKLVNP-OH
Activity (Vibrio vulnificus [1]): inactive | FIC (Klebsiella aerogenes [2]): 1.03 | MIC (Pseudomonas aeruginosa [3]): 25 µg/mL | FIC (Klebsiella pneumoniae [4]): 0.51 | MIC (Klebsiella pneumoniae [5]): 12.5 µg/mL | MIC (Escherichia coli [6]): 6.25 µg/mL | Activity (Vibrio vulnificus [7]): 100% | MBC (Klebsiella pneumoniae [8]): 25 µg/mL | MIC (Escherichia coli [9]): 0.195 µg/mL | MIC (Klebsiella pneumoniae [10]): 3.12 µg/mL | Activity (Vibrio vulnificus [11]): Active | MIC (Klebsiella aerogenes [12]): 0.048 µg/mL | MIC (Klebsiella pneumoniae [13]): 3.12 µg/mL | MIC (Klebsiella aerogenes [14]): 6.25 µg/mL | MFC (Nakaseomyces glabratus): > 100 µg/mL | MIC (Pseudomonas aeruginosa [15]): 1.56 µg/mL | FIC (Pseudomonas aeruginosa [16]): 1.12 | Activity (Vibrio vulnificus [17]): 80% | FIC (Escherichia coli [18]): 0.5

H-FKWKSVLKGVKGFVKGYF-OH
MIC (Escherichia coli [19]): 0.024 µg/mL | FIC (Klebsiella aerogenes [20]): 1 | MIC (Klebsiella pneumoniae [21]): 3.12 µg/mL | MIC (Escherichia coli [22]): 3.12 µg/mL | Activity (Streptococcus iniae): Active | FIC (Pseudomonas aeruginosa [23]): 1 | MIC (Klebsiella pneumoniae [24]): 6.25 µg/mL | MIC (Pseudomonas aeruginosa [25]): 12.5 µg/mL | FIC (Escherichia coli [26]): 0.53 | MIC (Pseudomonas aeruginosa [27]): 6.25 µg/mL | MBC (Klebsiella pneumoniae [8]): 25 µg/mL | MIC (Klebsiella pneumoniae [10]): 1.56 µg/mL | MIC (Klebsiella aerogenes [28]): 0.78 µg/mL | Activity (Vibrio vulnificus [29]): 20% | FIC (Klebsiella pneumoniae [30]): 0.26 | MFC (Nakaseomyces glabratus): > 100 µg/mL | Activity (Vibrio vulnificus [31]): inactive | MIC (Klebsiella aerogenes [32]): 6.25 µg/mL | Activity (Vibrio vulnificus [33]): Active | Activity (Vibrio vulnificus [34]): Active
